In patent publication US11999806B2, “Broad-spectrum polypeptide against enterovirus and application thereof” (WUHAN INSTITUTE OF VIROLOGY, CHINESE ACADEMY OF SCIENCES, priority 2018, dated 2024):
Where “and” joins values, the source holds several entries; their conditions need not be identical. Equal entries are not always repeated. Where two headings read alike, the source gives them in different places. Non-standard residues stand in square brackets, D forms with d. Residues, ends and D or L forms follow the SMILES beside them. No end group written: not given here.

How the values were obtained:
[1] = 20 mg/kg i.p. once daily for 3 days
Description: • (1) A total of 12 10-day-old suckling mice were randomly divided into two groups, 6 in each group.

EV71 [2] = format: cell-based, enterovirus 71; conditions: EV71 0.1 MOI, RD cells, 24 h; for Virus inhibition rate (%): CCK-8; for IC50: read-out: IC50 against EV71 by CCK8 method
Description: • (1) 293T cells were plated in a 24-well cell plate. • (2) After the cells reached 70%-80% confluence, the MEM medium containing 10% serum was replaced with a MEM medium containing 2% serum (0.5 ml/well), and 5 μl of 10^6 PFU/mL EV71 virus per well was added. • (3) After 1 hour, polypeptides P2, 3A-TAT-EP, 3A-EP-DRI and 3A-EP-PEG-PA were added at a final concentration of 0.01 μM, 0.1 μM, 1 μM, and 10 μM, respectively. • (4) Samples were collected 24 hours after virus infection, and RNA was extracted with a total RNA extraction kit. • (5) The supernatant in each well was discarded, then 350 μl of TRK Lysis Buffer was added to the well and the plate was shaken on the shaker for 5 minutes. • (6) 350 μl of 70% ethanol (DEPC-treated) was added to the well and the plate was shaken on the shaker for 5 minutes. • (7) The mixture in the well was transferred to a RNA extraction column and centrifuged at 12000 g for 1 min. • (8) The solution collected in the recovery tube was added back to the column and centrifuged at 12,000 g for 1 min. • (9) RNA washing buffer 1 was added to the column and centrifuged at 12,000 g for 30 s. • (10) RNA washing buffer 2 was added to the column and centrifuged at 12,000 g for 1 min. • (11) Step (10) was repeated once. • (12) The empty column was centrifuged at 12,000 g for 2 min to completely remove residual RNA washing buffer. • (13) 50 μl DEPC-treated water was added to the column and centrifuge at 12000 g for 2 min. • (14) 2 μl RNA sample was used according to one step qRT-PCR kit for fluorescence quantification experiment. 3. […] Each concentration was tested in triplicate. • (3) The diluted virus solution was added to the plate of step (1), 100 μL per well with the final virus concentration was 0.1 MOI. Wells without polypeptide and virus (well without treatment), wells with virus only were used as controls. • (4) The mixture of step (2) was added to the 96-well plate plated with cells in step (1) and incubated in 5% CO2 at 37° C. for 24 h. Then CCK8 kit was used to determine the inhibitory effect of the polypeptide on virus. • (5) The inhibition rate of different concentrations of polypeptides on viral infection was calculated using the following formula: OD means the value of OD450-OD630, inhibition rate=(OD well with treatment−OD well with virus only)×100%/(OD well without treatment−OD well with virus only)
• (1) RD cells in good growth state were plated in a 96-well plate. • (2) After the cells reached 70%-80% confluence, the MEM medium containing 10% serum was replaced with a MEM medium containing 2% serum. Group without polypeptide and virus, and group with virus but without polypeptide were included as controls. The final virus concentration was 0.1 MOI. • (3) 1 h later, polypeptide CR at a final concentration of 5 μM, 2.5 μM, 1.25 μM, 0.625 μM, 0.3125 μM, and 0.15625 μM was added, respectively. Group without polypeptide and virus, and group with virus but without polypeptide were set as controls. • (4) 24 hours after virus infection, when the change in the control group with only virus was obvious, 10 μl of viable cell detection agent CCK-8 was added to each well and mixed well. • (5) The plate was incubated at 37° C. for 2 h. • (6) The absorbance value at OD450 was measured with a microplate reader. Inhibition rate of polypeptide=(OD well with treatment−OD well with virus only)×100%/(OD well without treatment−OD well with virus only), OD refers to the value of OD450-OD630.
• (1) RD cells in good growth state were plated in a 96-well plate. • (2) After the cells reached 70%-80% confluence, the MEM medium containing 10% serum was replaced with a MEM medium containing 2% serum. Group without polypeptide and virus, and group with virus but without polypeptide were included as controls. The final virus concentration was 0.1 MOI. • (3) 1 h later, polypeptide CR at a final concentration of 2.5 μM, 1.25 μM, 0.625 μM, 0.3125 μM, and 0.15625 μM was added, respectively. […]

EV71 [3] = test: Anti-EV71 efficiency in 293T cells, viral RNA by qRT-PCR; format: cell-based, enterovirus 71; conditions: for antiviral effect of P2 variants as EV71 inhibitor, in words: FIG. 5, 293T cells, compared with P2
Description: • (1) 293T cells, Vero cells and Huh7.5 cells were plated in 24-well plates respectively. • (2) After the cells reached 70%-80% confluence, the MEM medium containing 10% serum was replaced with a MEM medium containing 2% serum (0.5 ml/well), and 5 μl of 10^6 PFU/mL EV71 virus per well was added. • (3) After 1 h, polypeptide P2 was added to different cells at a final concentration of 0.01 μM, 0.1 μM, 1 μM, 10 μM, and 50 μM, respectively. • (4) Samples were collected 24 hours after virus infection, and RNA was extracted with a total RNA extraction kit as follows. • (5) The supernatant in each well was discarded, then 350 μl of TRK Lysis Buffer was added to the well and the plate was shaken on the shaker for 5 minutes. • (6) 350 μl of 70% ethanol (DEPC-treated) was added to the well and the plate was shaken on the shaker for 5 minutes. • (7) The mixture in the well was transferred to a RNA extraction column and centrifuged at 12,000 g for 1 min. • (8) The solution collected in the recovery tube was added back to the column and centrifuged at 12,000 g for 1 min. • (9) RNA washing buffer 1 was added to the column and centrifuged at 12,000 g for 30 s. • (10) RNA washing buffer 2 was added to the column and centrifuged at 12,000 g for 1 min. • (11) Step (10) was repeated once. • (12) The empty column was centrifuged at 12,000 g for 2 min to completely remove residual RNA washing buffer. • (13) 50 μl DEPC-treated H2O was added to the column and centrifuge at 12,000 g for 2 min. • (14) 2 μl RNA sample was used according to one step qRT-PCR kit for fluorescence quantification experiment. […]

## CC(=O)N[C@H](CCCNC(=N)N)C(=O)N[C@H](CS)C(=O)N[C@H](Cc1ccc(O)cc1)C(=O)N[C@H](CCC(N)=O)C(=O)N[C@H](CCCNC(=N)N)C(=O)N[C@@H](C(=O)N[C@H](CCC(=O)O)C(=O)N[C@H](CCC(=O)O)C(=O)N1CCC[C@@H]1C(=O)N1CCC[C@@H]1C(=O)N[C@H](CCCNC(=N)N)C(=O)N[C@H](CCCNC(=N)N)C(=O)N[C@H](CCCNC(=N)N)C(=O)N[C@H](CCC(N)=O)C(=O)N[C@H](CCCNC(=N)N)C(=O)N[C@H](CCCNC(=N)N)C(=O)N[C@H](CCCCN)C(=O)N[C@H](CCCCN)C(=O)N[C@H](CCCNC(=N)N)C(=O)NCC(=O)N[C@H](Cc1ccc(O)cc1)C(N)=O)C(C)C [ER-DRI] (Ac-[dR][dC][dY][dQ][dR][dV][dE][dE][dP][dP][dR][dR][dR][dQ][dR][dR][dK][dK][dR]G[dY]-NH2)
[1]; four weeks after administration
  HE staining of brain, liver, lung and kidney, in words: no significant pathological change in the brain, liver, lung and kidney
[1]; 10-day-old suckling mice, weight recorded 15 days
  body weight vs PBS group, in words: no significant difference in body weight
EV71 [2]; 0.625 μM
  Virus inhibition rate (%): 37.8% and 40.47% and 37.95%
EV71 [2]; 1.25 μM
  Virus inhibition rate (%): 75.85% and 72.43% and 77.52%
EV71 [2]; 2.5 μM
  Virus inhibition rate (%): 78.68% and 85.29% and 79.76%
EV71 [2]
  IC50: 640 nM

## CC[C@@H](C)[C@@H](NC(=O)[C@H]1CCCN1C(C)=O)C(=O)N[C@@H](C(=O)N[C@H](Cc1c[nH]c2ccccc12)C(=O)NCC(=O)N[C@H](CCC(N)=O)C(=O)N[C@H](CCC(=O)O)C(=O)N[C@H](CCCNC(=N)N)C(=O)N[C@H](CS)C(=O)N[C@H](Cc1ccc(O)cc1)C(=O)N[C@H](CCC(N)=O)C(=O)N[C@H](CCCNC(=N)N)C(=O)N[C@@H](C(=O)N[C@H](CCC(=O)O)C(=O)N[C@H](CCC(=O)O)C(=O)N1CCC[C@@H]1C(=O)N1CCC[C@@H]1C(=O)N[C@H](CCCNC(=N)N)C(=O)N[C@H](CCCNC(=N)N)C(=O)N[C@H](CCCNC(=N)N)C(=O)N[C@H](CCC(N)=O)C(=O)N[C@H](CCCNC(=N)N)C(=O)N[C@H](CCCNC(=N)N)C(=O)N[C@H](CCCCN)C(=O)N[C@H](CCCCN)C(=O)N[C@H](CCCNC(=N)N)C(=O)NCC(=O)N[C@H](Cc1ccc(O)cc1)C(N)=O)C(C)C)[C@H](C)CC [3A-EP-DRI]
EV71 [3]
  antiviral effect of P2 variants as EV71 inhibitor, in words: improved antiviral effect
EV71 [2]
  IC50: 3560 nM

## CCCCCCCCCCCCCCCC(=O)NCCCC[C@H](NC(=O)CCOCCOCCOCCOCCNC(=O)[C@H](CCCCN)NC(=O)[C@H](C)NC(=O)[C@@H]1CCCN1C(=O)[C@@H](NC(=O)[C@@H](NC(=O)[C@H](Cc1c[nH]c2ccccc12)NC(=O)CNC(=O)[C@H](CCC(N)=O)NC(=O)[C@H](CCC(=O)O)NC(=O)[C@H](CCCNC(=N)N)NC(=O)[C@H](CS)NC(=O)[C@H](Cc1ccc(O)cc1)NC(=O)[C@H](CCC(N)=O)NC(=O)[C@H](CCCNC(=N)N)NC(=O)[C@@H](NC(=O)[C@H](CCC(=O)O)NC(=O)[C@@H](N)CCC(=O)O)C(C)C)[C@@H](C)CC)[C@@H](C)CC)C(=O)O [3A-EP-PEG4-PA]
EV71 [3]
  antiviral effect of P2 variants as EV71 inhibitor, in words: improved antiviral effect

## RRRRRRRREEVRQYCRDQ [P2]
EV71 [3]; 293T cells, read-out: IC50 against EV71 by qRT-PCR
  IC50: 9.68 µM

## YGRKKRRQRRRGSGEEVRQYCR [ER]
EV71 [2]
  IC50: 1260 nM
